Assay results taken from patent US20110071403A1, “FUNCTIONAL NEAR-INFRARED FLUORESCENCE LYMPHATIC MAPPING FOR DIAGNOSING, ACCESSING, MONITORING AND DIRECTING THERAPY OF LYMPHATIC DISORDERS” (BOARD OF REGENTS OF THE UNIVERSITY OF TEXAS SYSTEM, priority 2009, published 2011).
Where a SMILES comes first, the peptide text is derived from it. Bridges are numbered along the chain shown (N, C = ends). Where no end group is shown, it is not given here. The star is where a group is joined. IRDye800CW = CC1(C)C(/C=C/C2=C(Oc3ccc(S(=O)(=O)O)cc3)C(=C/C=C3/N(CCCCS(=O)(=O)O)c4ccc(S(=O)(=O)O)cc4C3(C)C)/CCC2)=[N+](CCCCCC(=O)*)c2ccc(S(=O)(=O)[O-])cc21; IRDye800 = IRDye800 fluorophore

Experiments:
[1] = optical characterization of NIR imaging agents (spectra, extinction coefficient, quantum yield, lifetime, relative brightness); assay type: physicochemical; settings: for Emission maximum / Excitation maximum: 1 μM solution; for Extinction Coefficient × 10^4: at 785 nm; for Lifetime: frequency domain method, 785/830 (ex/em), ICG as standard
Experimental: Fluorescence quantum yield was determined by the comparative method of Williams et al. 1983 (Williams, Winfield and Miller. Analyst 109, 1067, 1983) using the quantum yield of ICG (in water) at 785/830 nm (24) as a standard. Lifetime measurements were obtained using the frequency domain-method using ICG as a standard. The IC50 of IRDye800-ABD was determined using a competitive binding assay modified from Dennis et al. 2002 (ibid). Briefly, MAXISORP fluorescent plates (Nunc, Rochester, N.Y.) were coated with mouse serum albumin (Sigma St Louis, Mo.) and incubated overnight at 4 degrees. Plates were washed three times with PBS+0.05% Tween20 (Sigma St. Louis, Mo.) to remove unbound albumin and were then blocked with TBS in casein (Pierce Rockford, Ill.) for 1 hour at 25 degrees. Equal volumes of unlabeled and labeled peptide were combined in centrifuge tubes for five different concentrations (0.05-10 nM) of unlabeled ABD peptide. The resulting peptide solution was then plated on the albumin coated plate, covered, and incubated for 1-2 hours at 37 degrees. The plate was washed with PBS+0.05% Tween20 three times to remove unbound peptide and fluorescence was measured using the ODYSSEY fluorescent plate reader (LI-COR, Lincoln, Nebr.). The average and standard deviation of four IC-50 values were determined.
In addition, Table 1 lists the relative brightness of each compound relative to ICG which was computed by taking the ratio of ((extinction coefficient)×(quantum yield))/((extinction coefficient of ICG)×(quantum yield of ICG)). […] Spectra for ICG and the IRDye800 conjugates were determined.

[2] = tested on: lymphatics of arms and legs; assay: first human study: NIR fluorescence lymphatic imaging with intradermal ICG, apparent lymph velocity and propulsion period in control and lymphedema subjects; settings: intradermal ICG up to 400 μg; vitals 2 h, follow-up calls 24 and 48 h
[3] = tested on: lymphatics of arms and legs; assay: second human study: NIR fluorescence lymphatic imaging with intradermal ICG pre- and post-MLD, apparent lymph velocity and propulsion period; settings: intradermal ICG up to 400 μg; vitals 2 h, follow-up calls 24 and 48 h
Text: Twelve normal volunteers and 10 subjects clinically diagnosed with Grade I or II unilateral LE participated and provided informed consent. […] The control subjects consisted of 2 males and 10 females, aged 22-59 years. The LE subjects were all female, aged 18-68 years with half experiencing lower extremity LE and the other half upper extremity LE. The injection sites were cleaned with a surgical scrub, followed by alcohol. Immediately after intradermal injection of imaging contrast agent using a 27 gauge needle, NIR fluorescence images were simultaneously acquired from both the LE and contralateral limbs of LE subjects. For control subjects, bilateral arms were imaged simultaneously in 6 subjects, and bilateral legs were imaged in the other 6 subjects. MLD was performed 30 to 60 minutes after the start of imaging followed by another 30 to 60 minutes of imaging. Vital signs were monitored for 2 hours after fluorescent agent administration and follow-up phone calls to assess subjects' condition were made 24 and 48 hours later. […]
The location and movement of lymphatic fluid containing ICG was imaged simultaneously in both limbs using two custom-built fluorescence imaging systems.

[4] = cited from earlier work
[5] = tested on: lymphatic vessels and nodes; assay: in vivo lymphatic imaging, dose escalation after intradermal injection at base of tail; parameters: species or system C57BL/6 mice
Experimental: (§1) Animal studies were conducted using shaved 6-7 week old female, C57BL/6 mice (Harlan, Charles River). […] Each mouse was injected intradermally at the base of the tail with 20 μL of 500 uM ICG or 20 μL of 100 μM dye for IRDye800, IRDy800-MSA and IRDye800-ABD in order to assess their performance in vivo. The injections were all made by the same investigator and the site was covered with sterile tape immediately prior to imaging to prevent camera saturation.
Animals were illuminated by a laser diode (100 mA, 80 mW for 785 nm, Sanyo; Richmond, Ind.) with the light source expanded to a circular area approximately 8 cm in diameter. Fluorescence emission was collected using an Electron Multiplying Charge Coupled Device (EMCCD) camera with a holographic notch-plus band-rejection filter (785-nm center wavelength for ICG) and a bandpass filter (830-nm center wavelength for ICG) placed prior to the lens to reject back-scattered and reflected excitation light. Fluorescence images were acquired with an integration time of 200 ms. For registration purposes, “white light” images were taken by removing the filters and acquiring images over 500 ms integration time. Up to 750 fluorescent images and 3 white light images were acquired immediately after injection on the left and right side of each animal. Statistical analyses of differences in fluorescent intensity were assessed by student t-test in which α=0.05. […] Images were processed using V++ software (Digital Optics; Auckland, New Zealand), and data was analyzed to determine in vivo fluorescent intensities in select regions of interest (ROI) using IMAGEJ (NIH, Bethesda, Md.) and MATLAB (The Mathworks). Statistical analysis was conducted using the student t-test with α=0.05.
In viva lymphatic imaging studies utilizing an escalating dose of IC was done.

[6] = taken up by the liver and secreted into the bile; cited from earlier work
[7] = tested on: lymphangiogenesis (α9β1); assay: Oxazolone-induced skin inflammation mouse model, NIR fluorescence imaging; assay type: in vivo; settings: 24 hours after intravenous injection, right inflamed vs left untreated side
Experimental: The NIR imaging was conducted with intradermal administration of ICG (as shown above in human studies) to image both the right and left side lymphatics. […] Increased vessel density, leakiness, and dilated vessels on the inflamed side as compared to the untreated side of the animal as evident from the lymphatic imaging as compared to the left, untreated side.
The right side of the animal which has greater lymphatic density as indicated by ICG imaging (as shown in FIG. 21) is also associated with increased IRDye800-[…] (SEQ ID NO: 2) fluorescence presumably owing to the stimulation of LECS in the process of lymphangiogenesis to produce α9β1 integrin.
This targeting approach can be used to detect the process of lymphangiogenesis in animal models in, for example, drug discovery programs focusing on cessation of tumor lymphangiogenesis (such is associated with cancer metastasis), or as a diagnostic to detect the lymphangiogenesis that occurs in metastatic cancer and other tymphovascular disorders. Lymphangiogenesis and the accompanying activation of LECS are known to be stimulated by vascular endothelial growth factor-C (VEGF-C) or hepatic growth factor (HGF). […] The induced lymphangiogenesis is clearly visualized by the increase in fluorescence 24 hours through […] after the administration of imaging conjugate, IRDye800-[…] […]

[8] = biological target: T1, integrin α9β1 on LECs (Homo sapiens, UniProt P05556+Q13797); assay: fluorescence microscopy of LECs stimulated by VEGF-C; assay type: cell-based
T1 construct: LECS stimulated by VEGF-C to express α9β1 on the extracellular membrane; endogenous in cells; host or cells: lymphatic endothelial cells (LECs) incubated with VEGF-C
T1 sequence (Q13797 30-1035): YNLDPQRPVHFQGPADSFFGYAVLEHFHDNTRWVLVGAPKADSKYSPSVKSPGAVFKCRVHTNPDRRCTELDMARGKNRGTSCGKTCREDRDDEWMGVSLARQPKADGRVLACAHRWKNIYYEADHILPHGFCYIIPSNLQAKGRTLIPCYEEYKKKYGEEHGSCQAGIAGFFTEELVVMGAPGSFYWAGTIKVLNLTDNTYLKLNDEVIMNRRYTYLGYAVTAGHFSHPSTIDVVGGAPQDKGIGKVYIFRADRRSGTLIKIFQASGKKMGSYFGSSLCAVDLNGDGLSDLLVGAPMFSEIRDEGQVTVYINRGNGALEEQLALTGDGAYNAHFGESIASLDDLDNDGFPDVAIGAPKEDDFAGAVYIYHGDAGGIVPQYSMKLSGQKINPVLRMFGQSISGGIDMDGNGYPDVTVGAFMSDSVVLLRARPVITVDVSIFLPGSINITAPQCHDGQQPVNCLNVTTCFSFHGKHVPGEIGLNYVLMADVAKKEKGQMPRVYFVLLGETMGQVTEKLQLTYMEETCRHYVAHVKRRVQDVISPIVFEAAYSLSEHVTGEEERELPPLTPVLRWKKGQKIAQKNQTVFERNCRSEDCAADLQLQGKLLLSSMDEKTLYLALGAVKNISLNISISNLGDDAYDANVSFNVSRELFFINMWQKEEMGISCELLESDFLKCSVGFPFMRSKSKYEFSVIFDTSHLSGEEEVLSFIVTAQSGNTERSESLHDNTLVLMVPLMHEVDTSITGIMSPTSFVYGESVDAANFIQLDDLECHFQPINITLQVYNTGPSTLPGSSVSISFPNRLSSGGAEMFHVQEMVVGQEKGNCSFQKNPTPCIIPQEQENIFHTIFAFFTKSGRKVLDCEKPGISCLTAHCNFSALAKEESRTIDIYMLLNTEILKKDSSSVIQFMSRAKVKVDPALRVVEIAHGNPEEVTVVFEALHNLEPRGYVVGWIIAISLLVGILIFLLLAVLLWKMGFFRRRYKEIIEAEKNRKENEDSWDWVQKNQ
T1 sequence (P05556 21-798): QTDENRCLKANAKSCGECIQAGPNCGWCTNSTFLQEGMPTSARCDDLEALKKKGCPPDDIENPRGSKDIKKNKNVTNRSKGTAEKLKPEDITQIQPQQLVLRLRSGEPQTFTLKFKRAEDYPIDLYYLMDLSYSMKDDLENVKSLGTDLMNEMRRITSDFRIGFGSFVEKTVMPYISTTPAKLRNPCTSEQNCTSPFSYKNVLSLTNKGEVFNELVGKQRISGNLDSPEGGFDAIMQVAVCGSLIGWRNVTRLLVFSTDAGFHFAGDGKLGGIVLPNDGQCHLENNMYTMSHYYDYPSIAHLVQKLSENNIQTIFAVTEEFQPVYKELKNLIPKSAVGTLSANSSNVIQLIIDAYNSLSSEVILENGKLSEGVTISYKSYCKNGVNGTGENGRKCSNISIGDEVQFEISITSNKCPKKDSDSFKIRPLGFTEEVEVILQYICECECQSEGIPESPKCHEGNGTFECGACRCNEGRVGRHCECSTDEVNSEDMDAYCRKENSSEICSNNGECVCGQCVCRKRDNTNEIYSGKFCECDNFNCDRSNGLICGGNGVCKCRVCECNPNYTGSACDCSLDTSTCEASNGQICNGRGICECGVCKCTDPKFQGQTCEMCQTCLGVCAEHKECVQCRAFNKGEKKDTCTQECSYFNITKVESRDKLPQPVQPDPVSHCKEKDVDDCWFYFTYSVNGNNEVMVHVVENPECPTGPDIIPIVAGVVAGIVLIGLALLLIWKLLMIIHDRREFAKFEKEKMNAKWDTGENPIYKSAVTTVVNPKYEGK
Text: FIG. 19: Fluorescence microscopy of LECS stimulated by VEGF-C to express α9β1 on the extracellular membrane as stained by (from left to right, top) by (i) DAPI, a nuclear stain, (ii) IRDye800-[…] (SEQ ID NO: 2), the imaging conjugate that targets α9β1, and (iii) a fluorescently labeled antibody that targets the β1 portion of α9β1.
This targeting approach can be used to detect the process of lymphangiogenesis in animal models in, for example, drug discovery programs focusing on cessation of tumor lymphangiogenesis (such is associated with cancer metastasis), or as a diagnostic to detect the lymphangiogenesis that occurs in metastatic cancer and other tymphovascular disorders. Lymphangiogenesis and the accompanying activation of LECS are known to be stimulated by vascular endothelial growth factor-C (VEGF-C) or hepatic growth factor (HGF). […] When VEGF-C is not present during incubation, α9β1 (over) expression and IRDye800-[…] […] The induced lymphangiogenesis is clearly visualized by the increase in fluorescence 24 hours through […] after the administration of imaging conjugate, IRDye800-[…] […] (SEQ ID NO: 2) was injected intravenously and 24 hours later, NIR fluorescence imaging was conducted to assess increased update associated with those tissues that were the site of Oxazolone application and increased lymphatic vessel densities that are indicative of lymphangiogenesis.

[9] = tested on: lymphangiogenesis (α9β1); assay: […] plug (with/without HGF) mouse model of lymphangiogenesis, NIR fluorescence imaging; assay type: in vivo; settings: 24 hours after intradermal administration
Experimental: FIG. 20: NIR fluorescent image of an animal model of lymphangiogenesis (top) with a […] plug impregnated with LEC stimulating factor HGF on the right with a control […] plug without HGF on the left. The animal image (top) is taken 24 hours after administration of IRDye800-[…] (SEQ ID NO: 2) showing agent uptake into the […] plug containing LEC stimulating factor HGF and little or no uptake into the […] plug without HGF. When the […] plugs were removed from the animal and imaged, they were then imaged for the presence of IRDye800-[…] (SEQ ID NO: 2).
This targeting approach can be used to detect the process of lymphangiogenesis in animal models in, for example, drug discovery programs focusing on cessation of tumor lymphangiogenesis (such is associated with cancer metastasis), or as a diagnostic to detect the lymphangiogenesis that occurs in metastatic cancer and other tymphovascular disorders. […] The induced lymphangiogenesis is clearly visualized by the increase in fluorescence 24 hours through […] after the administration of imaging conjugate, IRDye800-[…] […] (SEQ ID NO: 2) was injected intravenously and 24 hours later, NIR fluorescence imaging was conducted to assess increased update associated with those tissues that were the site of Oxazolone application and increased lymphatic vessel densities that are indicative of lymphangiogenesis.

[10] = tested on: inguinal lymph node; assay: lymphatic clearance study, fluorescence intensity in inguinal lymph node over time
Experimental: as §1
Animals were illuminated by a laser diode (100 mA, 80 mW for 785 nm, Sanyo; Richmond, Ind.) with the light source expanded to a circular area approximately 8 cm in diameter. Fluorescence emission was collected using an Electron Multiplying Charge Coupled Device (EMCCD) camera with a holographic notch-plus band-rejection filter (785-nm center wavelength for ICG) and a bandpass filter (830-nm center wavelength for ICG) placed prior to the lens to reject back-scattered and reflected excitation light. Fluorescence images were acquired with an integration time of 200 ms. […] Statistical analyses of differences in fluorescent intensity were assessed by student t-test in which α=0.05. […] Images were processed using V++ software (Digital Optics; Auckland, New Zealand), and data was analyzed to determine in vivo fluorescent intensities in select regions of interest (ROI) using IMAGEJ (NIH, Bethesda, Md.) and MATLAB (The Mathworks). […]

[11] = biological target: mouse serum albumin (Mus musculus, UniProt P07724); settings: read-out: IC-50 of unconjugated ABD peptide for albumin; as reported by Dennis et al., 2002; cited from earlier work
Sequence of mouse serum albumin (Mus musculus, UniProt P07724) (P07724 25-608): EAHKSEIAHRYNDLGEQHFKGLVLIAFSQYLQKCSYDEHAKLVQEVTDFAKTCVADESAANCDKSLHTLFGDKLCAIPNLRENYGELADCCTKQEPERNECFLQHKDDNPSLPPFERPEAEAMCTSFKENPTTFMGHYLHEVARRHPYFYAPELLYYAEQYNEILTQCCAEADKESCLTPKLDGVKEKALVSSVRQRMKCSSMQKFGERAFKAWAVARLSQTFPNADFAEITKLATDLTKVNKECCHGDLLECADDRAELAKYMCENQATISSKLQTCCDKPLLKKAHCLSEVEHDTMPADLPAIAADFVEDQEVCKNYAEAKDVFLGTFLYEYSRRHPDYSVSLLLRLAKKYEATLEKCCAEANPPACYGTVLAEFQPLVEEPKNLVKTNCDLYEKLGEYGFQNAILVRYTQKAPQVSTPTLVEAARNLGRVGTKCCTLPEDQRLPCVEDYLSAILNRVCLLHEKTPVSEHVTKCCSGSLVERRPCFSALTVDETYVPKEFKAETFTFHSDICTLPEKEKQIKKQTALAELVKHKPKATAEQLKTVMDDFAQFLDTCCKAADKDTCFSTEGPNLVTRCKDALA

[12] = biological target: T2, mouse serum albumin (mouse, UniProt P07724 25-608); assay: competitive binding assay on plates coated with mouse serum albumin; unlabeled ABD peptide at 0.05-10 nM mixed with labeled peptide, fluorescence read-out; mean and SD of four IC-50 values
T2 construct: Bought protein; also called MSA

CC1(C)C(/C=C/C=C/C=C/C=C2\N(CCCCS(=O)(=O)O)c3ccc4ccccc4c3C2(C)C)=[N+](CCCCS(=O)(=O)[O-])c2ccc3ccccc3c21 [ICG, indocyanine green]
Emission maximum [1]: 799
Excitation maximum [1]: 785
Extinction Coefficient × 10^4 [1]: 8.60 +/− 0.35
Lifetime [1]: 0.59 +/− 0.049
adverse events associated with the drug [2]: No adverse events
adverse events associated with the imaging agent [3]: No adverse events
Quantum Yield (ICG standard) ([4]; ICG in water at 785/830 nm, used as standard): 0.016
maximal absorption ([4]; background statement): 780 nm
concentration sufficient to clearly depict lymphatic architecture in vivo ([5]; 20 μL intradermal at base of tail, mice): 500 µM
appearance of lymphatic vasculature ([5]; ICG at 500 μM): brighter and more prominent
appearance of lymphatic vessels and nodes ([5]; ICG at 20 and 100 uM): dim and difficult to discern
normal biological half-time [6]: 2-4 min

IRDye800-GGGPLAEIDGIELTY: IRDye800 conjugated to tenascin C derived integrin α9β1 binding peptide GGGPLAEIDGIELTY (SEQ ID NO: 2)
fluorescence in region of Oxazolone skin inflammation [7]: increased fluorescence
binding to LECs incubated in VEGF-C ([8]; VEGF-C for 30 minutes, co-stain with antibody to β1): co-localized with the antibody to β1
binding to LECs without VEGF-C ([8]; VEGF-C not present during incubation): not seen
fluorescence of control MATRIGEL plug with no HGF [9]: did not show appreciable fluorescence
fluorescence of resected MATRIGEL plug with HGF [9]: showed fluorescence

CC[C@H](C)[C@H](NC(=O)[C@H](CC(C)C)NC(=O)[C@H](CCCNC(=N)N)NC(=O)CCCCCN1C(=CC=C2CCCC(C=CC3=[N+](CCCCS(=O)(=O)[O-])c4ccc(S(=O)(=O)O)cc4C3(C)C)=C2Oc2ccc(S(=O)(=O)O)cc2)C(C)(C)c2cc(S(=O)(=O)O)ccc21)C(=O)N[C@@H](CCC(=O)O)C(=O)N[C@@H](CC(=O)O)C(=O)N[C@H](C(=O)N[C@H]1CSSC[C@@H](C(=O)N[C@@H](CC(C)C)C(=O)N[C@@H](Cc2c[nH]c3ccccc23)C(=O)N[C@@H](CCC(=O)O)C(=O)N[C@@H](CC(=O)O)C(=O)N[C@@H](CC(=O)O)C(=O)O)NC(=O)CNC(=O)[C@H](Cc2c[nH]c3ccccc23)NC(=O)[C@H](CCCNC(=N)N)NC(=O)[C@@H]2CCCN2C(=O)[C@H](CC(C)C)NC1=O)[C@@H](C)CC [IRDye800-ABD] (IRDye800CW-RLIEDICLPRWGCLWEDD-OH; disulfide 7-13; N-terminus and C-terminus assumed)
Emission maximum [1]: 803
Excitation maximum [1]: 780
Intensity relative to ICG ([1]; (extinction coefficient × quantum yield) ratio to ICG): 25.9
Quantum Yield ([1]; at 785/830 (ex/em), comparative method with ICG as standard): 0.0647 +/− 0.0007
Extinction Coefficient × 10^4 [1]: 54.836 +/− 0.25
Lifetime [1]: 0.92 +/− 0.057
lymphatic clearance from inguinal lymph node ([10]; 0.5 to 50 min after injection): slowed clearance
fluorescence intensity in inguinal node, initially ([10]; initial time after intradermal injection): started out with a lower intensity

RLIEDICLPRWGCLWEDD [ABD peptide]
IC50 [11]: 5 nM

B1: IRDye800-ABD (albumin binding domain peptide RLIEDICLPRWGCLWEDD conjugated to IRDye800CW) (peptide)
peptide: RLIEDICLPRWGCLWEDD
modifications: cysteine pairing not given here; also: IRDye800CW label attached via NHS ester, site not given here
notes: Made by adding a 1.75 times molar excess of IRDye800CW to the ABD peptide, then HPLC purified; also called IRDye800-ABD conjugate; ABD-IRDye800 conjugate
IC50 [12]: 1.19 nM
